Experimental data reported in patent publication US20070066616A1, “Inhibitors for extracellular signal-regulated kinase docking domains and uses therefor” (priority 2005, published 2007).
Entries after “also recorded” stand apart in the source; their conditions may differ.

How the values were obtained:
[1] = system: SUM-159 estrogen-receptor negative breast cancer cell line; test: Cell proliferation, SUM-159 cells; format: cell-based, human
Description: (§1) HeLa, A549, or SUM-159 cells were plated at a low density of ˜200-400 cells per well in the absence or presence of putative ERK docking domain inhibitors. Cell colonies were stained with crystal violet and counted after 6-10 days. In FIG. 7A cells were grown on 10 cm plates in the absence (−) or presence of 100 mM of compound 67, 36, 68, 81, or 76. Colony formation dose response in the presence of the indicated concentrations of compound 76 or 81 for Hela cells (100 mM) (FIG. 7B), A549 cells (50 mM) (FIG. 7C), or SUM-159 cells (50 mM) (FIG. 7D).
(§2) Trypsinized cells were plated on 12 or 24 well plates at low densities (200-400 cells per well) in the absence (DMSO only) or presence of test compounds. In additional experiments, cells were first allowed to adhere to the culture dishes for 16 hours prior to treatment with test compounds. The treated cells received a single dose of the test compounds at the beginning of the experiments. The control and treated cells were grown for 8-14 days to allow the formation of colonies. Cells then were fixed for 10 minutes in 4% paraformaldehyde and stained with 0.2% crystal violet (in 20% methanol) for 1-2 minutes. Following several washes with distilled water, the colonies (containing at least 40 cells) were counted. Each individual experiment was repeated on at least 3 separate occasions.

[2] = system: A549 lung carcinoma cells; test: Colony formation assay, A549 cells; format: cell-based, human; details: colony formation dose response (FIG. 7C)
Description: as §1, §2

[3] = system: HeLa, A549, or SUM-159 cells; test: Colony formation assay, screen of test compounds (FIG. 7A); format: cell-based, human; design: dose or concentration left out as unconfirmed; details: FIG. 7A screen as printed
Description: as §1, with “(100 mM)” left out
as §2
The effects of the active compounds on cell proliferation and survival were tested using a colony formation assay.

[4] = system: HT1080 fibrosarcoma cells; test: Cell proliferation, HT1080 cells; format: cell-based, human; details: data not shown
Description: as §2

[5] = system: ERK-mediated phosphorylation of Rsk-1 on Thr573; test: ERK-mediated Rsk-1 phosphorylation (Thr573), immunoblot and densitometry in EGF-stimulated HeLa cells; format: cell-based, human; details: immunoblot
Description: Prior to harvesting, cells were pre-incubated with the test compounds for 15-20 minutes and then stimulated with EGF or anisomycin to activate the ERK or p38 MAP kinase pathways, respectively. Control and treated cells were washed twice with cold phosphate buffered saline (PBS, pH 7.2; Invitrogen) and proteins were collected following cell lysis with 300 μl of cold tissue lysis buffer (20 mM Tris, pH 7.4, 137 mM NaCl, 2 mM EDTA, 1% Triton X-100, 0.1% SDS, 25 mM β-glycerophosphate, 2 mM sodium pyrophosphate, 10% glycerol, 1 mM sodium orthovanadate, 1 mM phenylmethylsulfonyl fluoride (PMSF), 1 mM benzamidine), allowed to incubate on ice for about 10 minutes and then centrifuged at 20,000 (X g) to clarify the lysates of insoluble material. The lysates then were diluted with an equal volume of 2X SDS-sample buffer and the proteins were separated on SDS-PAGE for immunoblot analysis. Immunoblot analysis was done as previously described (41-43).
All compounds were subjected to assays of ERK specific phosphorylation of Rsk-1 and/or Elk-1 as examined by immunoblot analysis using phosphorylation specific antibodies. In FIG. 5A HeLa cells were cultured in 24 well plates and pretreated for 20-30 minutes with […] of the selected test compounds. The cells were stimulated with epidermal growth factor (EGF, 50 ng/ml) for 5 minutes to activate the ERK pathway. Cell lysates were collected and immunoblotted for ERK-mediated phosphorylation of Rsk-1 on Thr573. As shown, EGF treatment alone caused a robust increase in Thr573 phosphorylation on Rsk-1 in the absence of test compounds. The presence of test compounds had inhibitory effects on ERK-mediated Rsk-1 phosphorylation.
Compounds 86-98 were first tested for inhibition of ERK mediated phosphorylation of the transcription factor Elk-1, which is an important regulator of cell proliferation. Cells were treated with EGF to activate the ERK pathway and phosphorylation of Elk-1 on the ERK site at S383 was detected by immunoblot analysis (FIG. 5C). […] The effects of the test compounds were also tested with Rsk-1, another ERK substrate involved in regulating cell proliferation.

[6] = molecular target: T1, ERK2 (Mus musculus, UniProt P63085); test: Fluorescence titration (quenching of intrinsic ERK2 fluorescence); format: binding
T1 construct: (His)x6; made in house; host or cells: bacteria
T1 sequence (P63085 whole entry): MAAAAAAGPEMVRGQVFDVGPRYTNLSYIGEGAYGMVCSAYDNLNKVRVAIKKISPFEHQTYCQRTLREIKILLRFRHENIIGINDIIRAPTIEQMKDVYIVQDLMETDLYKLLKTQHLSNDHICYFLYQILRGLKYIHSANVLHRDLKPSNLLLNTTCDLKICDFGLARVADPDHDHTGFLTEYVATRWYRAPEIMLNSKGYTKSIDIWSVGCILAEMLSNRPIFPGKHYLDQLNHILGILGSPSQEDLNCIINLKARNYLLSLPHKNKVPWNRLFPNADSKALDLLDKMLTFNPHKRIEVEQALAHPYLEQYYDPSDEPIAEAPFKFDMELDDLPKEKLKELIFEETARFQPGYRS
Description: Experiments measure the changes in the intrinsic ERK2 fluorescence due to the presence of aromatic amino acids, with the indole group of tryptophan being the major fluorophore with absorption and emission maxima around 280 and 340 nanometers (nm), respectively. Fluorescence spectra were recorded with a Luminescence Spectrometer LS50 (Perkin Elmer, Boston, Mass.). For all experiments, ERK2 protein was diluted into 20 mM Tris-HCl, pH 7.5. Titrations were performed by increasing the test compound concentration while maintaining the ERK2 protein concentration at 3 μM.
The excitation wavelength was 295 nm and fluorescence was monitored from 300 to 500 nm. All reported fluorescence intensities are relative values and are not corrected for wavelength variations in detector response. Dissociation constants, KD, were determined using reciprocal plots, 1/ν vs 1/[I], where ν represents the percent occupied sites calculated assuming fluorescence quenching to be directly proportion to the percentage of occupied binding sites, [I] represents the concentration of the inhibitor compound and the slope of the curve equals the KD (48-49).
ERK2 contains three tryptophans, which have intrinsic fluorescence. Fluorescence quenching of ERK2 by the test compounds is indicative of binding interactions and potential protein conformational changes.

[7] = system: ERK-mediated phosphorylation of Elk-1 on S383; test: ERK-mediated Elk-1 phosphorylation (Ser383), immunoblot in EGF-stimulated HeLa cells; format: cell-based, human
Description: Prior to harvesting, cells were pre-incubated with the test compounds for 15-20 minutes and then stimulated with EGF or anisomycin to activate the ERK or p38 MAP kinase pathways, respectively. […] The lysates then were diluted with an equal volume of 2X SDS-sample buffer and the proteins were separated on SDS-PAGE for immunoblot analysis. Immunoblot analysis was done as previously described (41-43).
Cells were treated with EGF to activate the ERK pathway and phosphorylation of Elk-1 on the ERK site at S383 was detected by immunoblot analysis (FIG. 5C). […] The effects of the test compounds were also tested with Rsk-1, another ERK substrate involved in regulating cell proliferation.

IC50 [2]: ~25 µM
y-intercept of reciprocal plot (indicating a single binding site) ([6]; 1/ν vs 1/[I] plot): 1.8
Compound: CCOc1ccc(C=C2SC(=O)N(CCN)C2=O)cc1 [Compound 76]
inhibition of cell proliferation in SUM-159 (in words) [1]: inhibition of cell proliferation
effect on colony formation / cell proliferation (in words) [3]: completely inhibited
inhibition of cell proliferation in HT1080 (in words) [4]: inhibition of cell proliferation
effect on ERK-mediated Rsk-1 phosphorylation (in words) [5]: highest inhibition
ERK2 fluorescence quenching / binding (in words) ([6]; fluorescence titration): strong quenching; also recorded: bind to directly ERK2
effect on ERK-mediated Elk-1 phosphorylation (in words) [7]: inhibited
